Assays:
[1] = Clearance in dog; assay type: ADME, organism-based, Canis lupus familiaris; conditions: in vivo
[2] = Half life in dog; assay type: ADME, organism-based, Canis lupus familiaris; conditions: in vivo
[3] = Intrinsic clearance in dog hepatocytes assessed as per million cells; assay type: ADME, cell-based, Canis lupus familiaris, Hepatocyte; conditions: read-out: CLH
[4] = Intrinsic clearance in rat hepatocytes assessed as per million cells; assay type: ADME, cell-based, Hepatocyte; conditions: read-out: CLH
[5] = Oral bioavailability in dog; assay type: ADME, organism-based, Canis lupus familiaris; conditions: in vivo
[6] = Volume of distribution at steady state in rat; assay type: ADME, organism-based; conditions: in vivo, read-out: Vdss
[7] = Intrinsic clearance in human hepatocytes assessed as per million cells; assay type: ADME, cell-based, Hepatocyte; conditions: read-out: CLH
[8] = Half life in rat; assay type: ADME, organism-based; conditions: in vivo
[9] = Volume of distribution at steady state in dog; assay type: ADME, organism-based, Canis lupus familiaris; conditions: in vivo, read-out: Vdss
[10] = Oral bioavailability in rat; assay type: ADME, organism-based; conditions: in vivo
[11] = Clearance in rat; assay type: ADME, organism-based; conditions: in vivo
[12] = Lipophilicity, log D of the compound at pH 7.4; assay type: physicochemical; conditions: buffer

| Compound | hepatocyte CLint [4] [µL/min/1e6 cells] | logD [12] | also measured |
| --- | --- | --- | --- |
| CC(=O)Nc1nc(C)c(-c2cc(Cl)c3c(c2)CN([C@H](C)C2CC2)C3=O)s1 | 6 | 3.9 | – |
| CC(=O)Nc1nc(C)c(-c2cc3c(c(NS(C)(=O)=O)c2)C(=O)N([C@@H](C)C2CC2)C3)s1 | 3.7 to 4 | 3.3 | clearance [1]: 6.2 mL/min/kg; half-life [2]: 1.3 h; hepatocyte CLint [3]: 7.6 µL/min/1e6 cells; bioavailability [5]: 1.6%; Vd [6]: 0.4 L/kg; hepatocyte CLint [7]: 3.4 µL/min/1e6 cells; half-life [8]: 6.7 h; Vd [9]: 0.7 L/kg; bioavailability [10]: 49%; clearance [11]: 0.7 mL/min/kg |
| C[C@@H](C1CC1)N1Cc2cc(-c3cnc(N)nc3)cc(Cl)c2C1=O | 2 | 2.6 | – |
| COCCS(=O)(=O)Nc1cc(-c2sc(NC(C)=O)nc2C)cc2c1C(=O)N([C@@H](C)C1CC1)C2 | 166 | 3.5 | – |
| CC(=O)Nc1nc(C)c(-c2cc3c(c(S(N)(=O)=O)c2)C(=O)N([C@@H](C)C2CC2)C3)s1 | < 2 | 2.5 | – |
| COCCNS(=O)(=O)c1cc(-c2sc(NC(C)=O)nc2C)cc2c1C(=O)N([C@@H](C)C1CC1)C2 | 56 | 2.7 | – |
| CC(=O)Nc1nc(C)c(-c2cc(C)c3c(c2)CN([C@@H](C)C2CC2)C3=O)s1 | 11 | 4.3 | – |

Now from value to compound, other results behind:

| hepatocyte CLint [4] [µL/min/1e6 cells] | logD [12] | Compound | also measured |
| --- | --- | --- | --- |
| 4.5 to 5 | 3 | CNS(=O)(=O)c1cc(-c2sc(NC(C)=O)nc2C)cc2c1C(=O)N([C@@H](C)C1CC1)C2 | clearance [1]: 2.1 mL/min/kg; half-life [2]: 12 h; hepatocyte CLint [3]: 2.1 µL/min/1e6 cells; bioavailability [5]: 44%; Vd [6]: 1 L/kg; hepatocyte CLint [7]: 0.5 µL/min/1e6 cells; half-life [8]: 2.6 h; Vd [9]: 2.2 L/kg; bioavailability [10]: 30%; clearance [11]: 4.4 mL/min/kg |
| 1.7 to 2 | 2.4 | CC(=O)Nc1nc(C)c(-c2cc3c(c(S(C)(=O)=O)c2)C(=O)N([C@@H](C)C2CC2)C3)s1 | half-life [2]: 3.9 h; hepatocyte CLint [3]: 1 µL/min/1e6 cells; Vd [6]: 1.2 L/kg; hepatocyte CLint [7]: 0.4 µL/min/1e6 cells; half-life [8]: 2.3 h; Vd [9]: 1.1 L/kg; bioavailability [10]: 51%; clearance [11]: 6.3 mL/min/kg |
| 2 | 3.8 | CC(=O)Nc1ncc(-c2cc(Cl)c3c(c2)CN([C@@H](C)C2CC2)C3=O)s1 | – |
| 146 | 4.3 | Cc1cc(-c2cnc3[nH]ccc3n2)cc2c1C(=O)N([C@@H](C)C1CC1)C2 | – |
| 4 | 3.8 | CNC(=O)c1nc(-c2cc(C)c3c(c2)CN([C@@H](C)C2CC2)C3=O)cnc1N | – |
| 3 | 3.9 | CC(=O)Nc1nc(C)c(-c2cc(Cl)c3c(c2)CN([C@@H](C)C2CC2)C3=O)s1 | – |
| 43 | 2.6 | Cc1cc(-c2nccnc2N)cc2c1C(=O)N([C@@H](C)C1CC1)C2 | – |
| 6 | 1.9 | CC(=O)Nc1nc(C)c(-c2cc3c(c(S(=O)(=O)CCCO)c2)C(=O)N([C@@H](C)C2CC2)C3)s1 | – |

— ChEMBL document CHEMBL4118226, “Discovery of Highly Isoform Selective Orally Bioavailable Phosphoinositide 3-Kinase (PI3K)-γ Inhibitors” (J Med Chem, 2018)
